Holding throughout (test): Pre-emergence soil-applied mixtures, greenhouse
The subject of test [1] is ABUTH (Abutilon theophrasti, velvetleaf). The format is in vivo, Abutilon theophrasti Medik. From the text: (§1) Seeds or nutlets of the desired test plant species were planted in a soil matrix prepared by mixing a loam soil (32 percent silt, 23 percent clay, and 45 percent sand, with a pH of about 6.5 and an organic matter content of about 1.9 percent) and calcareous grit in an 80 to 20 ratio. The soil matrix was contained in plastic pots with a volume of 1 quart and a surface area of 83.6 square centimeters (cm^2).
(§2) Treatments consisted of the benzyl ester of 4-amino-3-chloro-5-fluoro-6-(4-chloro-2-fluoro-3-methoxy-phenyl)pyridine-2-carboxylic acid (compound A) formulated as an SC (suspension concentrate) and various herbicidal components alone and in combination. Forms of compound A were applied on an acid equivalent basis.
(§3) Other herbicidal components were applied on an acid equivalent or active ingredient basis and included the PSII-inhibiting herbicides, atrazine formulated as Atrazine® 90WDG, metribuzin formulated as Metribuzin 75DF, simazine formulated as Princep Caliber 90, tebuthiuron formulated as Spike 80DF, cyanazine (technical grade material), hexazinone (technical grade material), linuron (technical grade material), terbuthylazine (technical grade material), and diuron formulated as Diuron 4L.
(§4) Treatment requirements were calculated based upon the rates being tested, the concentration of active ingredient or acid equivalent in the formulation, and a 12 mL application volume at a rate of 187 L/ha.
(§5) For treatments comprised of formulated compounds, measured amounts of compounds were placed individually in 25 mL glass vials and diluted in a volume of 1.25% (v/v) Agri-Dex® crop oil concentrate (COC) to obtain 12× stock solutions. […] Application solutions were prepared by adding an appropriate amount of each stock solution (e.g., 1 mL) and diluted to the appropriate final concentrations with the addition of 10 mL of an aqueous mixture of 1.25% (v/v) COC so that the final spray solutions contained 1.25% (v/v) COC.
(§6) For treatments comprised of technical compounds, weighed amounts can be placed individually in 25 mL glass vials and dissolved in a volume of 97:3 (v/v) acetone/DMSO to obtain 12× stock solutions. […] Application solutions can be prepared by adding an appropriate amount of each stock solution (e.g., 1 mL) and diluted to the appropriate final concentrations with the addition of 10 mL of an aqueous mixture of 1.5% (v/v) COC so that the final spray solutions contain 1.25% (v/v) COC. When technical materials are used, the concentrated stock solutions can be added to the spray solutions so that the final acetone and DMSO concentrations of the application solutions are 16.2% and 0.5%, respectively.
For treatments comprised of formulated and technical compounds, weighed amounts of the technical materials can be placed individually in 25 mL glass vials and dissolved in a volume of 97:3 (v/v) acetone/DMSO to obtain 12× stock solutions, and measured amounts of the formulated compounds can be placed individually in 25 mL glass vials and diluted in a volume of 1.5% (v/v) COC or water to obtain 12× stock solutions. […] Application solutions can be prepared by adding an appropriate amount of each stock solution (e.g., 1 mL) and diluted to the appropriate final concentrations with the addition of an appropriate amount of an aqueous mixture of 1.5% (v/v) COC so that the final spray solutions contain 1.25% (v/v) COC. […]

Test [2] relates to SETFA (Setaria faberi, giant foxtail). It counts as in vivo, Setaria faberi Herrm. The settings on record: Diuron 280 g ai/ha; 29 DAA.
Text: as §1, §2, §3, §4, §5, §6
(§7) For treatments comprised of formulated and technical compounds, weighed amounts of the technical materials can be placed individually in 25 mL glass vials and dissolved in a volume of 97:3 (v/v) acetone/DMSO to obtain 12× stock solutions, and measured amounts of the formulated compounds can be placed individually in 25 mL glass vials and diluted in a volume of 1.5% (v/v) COC or water to obtain 12× stock solutions. […] Application solutions can be prepared by adding an appropriate amount of each stock solution (e.g., 1 mL) and diluted to the appropriate final concentrations with the addition of an appropriate amount of an aqueous mixture of 1.5% (v/v) COC so that the final spray solutions contain 1.25% (v/v) COC. As required, additional water and/or 97:3 (v/v) acetone/DMSO can be added to individual application solutions so that the final acetone and DMSO concentrations of the application solutions being compared are 8.1% and 0.25%, respectively.
(§8) All stock solutions and applications solutions were visually inspected for compound compatibility prior to application. Spray solutions were applied to the soil with an overhead Mandel track sprayer equipped with a 8002E nozzles calibrated to deliver 187 L/ha over an application area of 0.503 m^2 at a spray height of 18 inches (46 cm) above average pot height. […]

The subject of test [3] is SETVI (Setaria viridis, green foxtail). It counts as in vivo, Setaria viridis (L.) Beauv. The settings on record: Diuron 280 g ai/ha.
Text: as §1, §2, §3, §4
(§9) For treatments comprised of formulated compounds, measured amounts of compounds were placed individually in 25 mL glass vials and diluted in a volume of 1.25% (v/v) Agri-Dex® crop oil concentrate (COC) to obtain 12× stock solutions. […]
(§10) For treatments comprised of formulated and technical compounds, weighed amounts of the technical materials can be placed individually in 25 mL glass vials and dissolved in a volume of 97:3 (v/v) acetone/DMSO to obtain 12× stock solutions, and measured amounts of the formulated compounds can be placed individually in 25 mL glass vials and diluted in a volume of 1.5% (v/v) COC or water to obtain 12× stock solutions. […]

Test [4] concerns BRAPP (Brachiaria platyphylla, broadleaf signalgrass). The format is in vivo, Brachiaria platyphylla (Groseb.) Nash. The settings on record: 28 DAA.
Text: as §1, §2, §3, §4, §5, §6, §7, §8

The subject of test [5] is ECHCO (Echinochloa colonum, junglerice). It counts as in vivo, Echinochloa colonum (L.) Link. The settings on record: Diuron 280 g ai/ha.
Text: as §1, §2, §3, §4, §9, §10

Test [6] has as its system ECHCG (Echinochloa crus-galli, barnyardgrass). It counts as in vivo, Echinochloa crus-galli (L.) P. Beauv.
Text: as §1, §2, §3, §4, §5
For treatments comprised of technical compounds, weighed amounts can be placed individually in 25 mL glass vials and dissolved in a volume of 97:3 (v/v) acetone/DMSO to obtain 12× stock solutions. […]
as §10

On to `CN(C)C(=O)Nc1ccc(Cl)c(Cl)c1` [Diuron, N′-(3,4-dichlorophenyl)-N,N-dimethylurea, reference compound], for which the “Visual Weed Control (%)-29 DAA ABUTH Obs” value in test [1] (Diuron 280 g ai/ha) is 30%; in test [1] (Diuron 560 g ai/ha), 70%; in test [1] (Diuron 1120 g ai/ha), 90%. The “Visual Weed Control (%)-29 DAA SETFA Obs” value in test [2] is given as 5%. Further, in test [3], the “Visual Weed Control (%)-29 DAA SETVI Obs” value is given as 0%. The entries for the “Visual Weed Control (%)-28 DAA BRAPP Obs” value in test [4] (Diuron 280 g ai/ha) and in test [4] (Diuron 560 g ai/ha) were 0% and 35%, respectively. For the same compound, the “Visual Weed Control (%)-29 DAA ECHCO Obs” value in test [5] was found to be 15%. For the same compound, the “Visual Weed Control (%)-28 DAA ECHCG Obs” value in test [6] (Diuron 280 g ai/ha) is 25%; in test [6] (Diuron 560 g ai/ha), 65%.

The values above are taken from patent US8912121B2, “Herbicidal compositions comprising 4-amino-3-chloro-5-fluoro-6-(4-chloro-2-fluoro-3-methoxyphenyl)pyridine-2-carboxylic acid or a derivative thereof and certain PS II inhibitors” (Dow Agrosciences LLC, priority 2012, dated 2014).
